The source of these data is PMC10699557, “A recombinant approach for stapled peptide discovery yields inhibitors of the RAD51 recombinase” (Chemical Science, 2023).

Experiment [1] has as its target monomeric version of RAD51 (HumRadA22) (Pyrococcus furiosus, UniProt O74036). The experiment can be described thus: Fluorescence polarisation (FP) competition assay: displacement of fluorescein-labelled BRC4 repeat. The format is binding, archaeal RadA mutant with human Rad51 surface residues. To be noted: read-out: FP competition KD, nM, Stapled; stapled product (linker DVT or DVP as in Table 1); 100 nM HumRadA22, 10 nM BRC4-fluorescein; 20 mM CHES pH 9.5, 150 mM NaCl, 0.1% BSA, 0.1% Tween-20; KD calculated from IC50; single titration, three technical replicates per point. The text has this:
We prepared all stapled peptides from small-scale bacterial cultures as GB1/C-His8 fusions and cyclised them with the DVT linker. For peptides SP10, SP11, SP12 and SP15, correct stapling was confirmed by MS, showing a similar composition to SP2 (Fig. S15–S18 ^†). Thus, we confirm that the pseudo-dilution approach is robust in yielding almost exclusively the cyclised product, irrespective of whether a helical or non-helical motif is being constrained. To examine the effect of introducing a covalent staple on affinity, a mock reaction was done in parallel for each peptide by splitting the IMAC elution into two halves and adding DMSO to the mock control instead of the linker. TCEP (500 μM) was included in the mock reaction to maintain the peptide in linear form by preventing disulfide formation. The peptides were tested in a fluorescence polarisation (FP) assay monitoring the displacement of a fluorescently-labelled BRC4 repeat from a monomeric version of RAD51 (HumRadA22), as reported previously.[25] […]
Fluorescence polarisation competition assay
FP competition assay was a modified version of a protocol described previously. Fluorescein-labelled HsBRC4 probe for this assay was kindly provided by Dr Laurens Lindenburg (Hollfelder group, Department of Biochemistry, University of Cambridge). Black 384-well flat-bottom microplates (Corning, 3821) were used with a 40 μl final reaction volume in all measurements. Following buffer conditions were used: 20 mM CHES pH 9.5, 150 mM NaCl, 0.1% BSA, 0.1% Tween-20. Each reaction contained 100 nM HumRadA22 and 10 nM BRC4-fluorescein. Two-fold serial dilutions of stapled peptides were added to the reactions. A free probe control reaction containing only 10 nM BRC4-fluorescein was used to calibrate gain and focal height. FP measurements were performed on Pherastar FX or Clariostar Plus (BMG Labtech) plate readers equipped with an FP 485-520-520 optic modules. Binding curves were fitted using the four-parameter logistic model with a variable Hill slope using Prism software (Graphpad). Regression fitting was performed using the least squares optimisation algorithm.
KD values were estimated from the fitted IC 50 parameters using a previously reported

Experiment [2] has as its target HumRadA22 (Pyrococcus furiosus, UniProt O74036). The experiment can be described thus: Isothermal titration calorimetry (ITC) of peptide binding. More on the design: species or system archaeal RadA mutant with human Rad51 surface residues. To be noted: read-out: ITC KD; free peptides; 20 mM CHES pH 9.5, 150 mM NaCl, 0.1% Tween-20; 25°C; single-site binding model. On the procedure:
We then evaluated the binding of free peptides to HumRadA22 using FP competition assay and isothermal titration calorimetry (Table 1 and Fig. 3B and C). […] All three peptides SP2, SP24 and SP30 bound with similar low-nanomolar affinities in ITC, and the binding appears to be slightly weaker relative to the linear BRC8-2 template (Fig. 3C).
(§1) Isothermal titration calorimetry
(§2) Peptides were resuspended in MilliQ water to 10 times the desired final concentration.
This was then diluted 10x with the ITC buffer to obtain the final titrant solution (20 mM CHES pH 9.5, 150 mM NaCl, 0.1% Tween-20). HumRadA22 was buffer-exchanged on a NAP-5 desalting column (Cytiva) into ITC buffer and protein concentration was adjusted to 10:9 of the desired final value. […]
(§3) Dried peptides were dissolved in MilliQ water to 0.3 mg/ml, and then two-fold diluted in 20 mM sodium phosphate, pH 7.4, giving a final solution of 0.15 mg/ml peptide in 10 mM sodium phosphate. CD spectra of selected peptides were recorded on an AVIV 410 circular dichroism spectropolarimeter using a 1 mm path length quartz cuvette. […]
(§4) The ability of linear and stapled BRC repeat peptides to dissociate RAD51-ssDNA nucleofilament was evaluated using an electrophoretic mobility shift assay (EMSA). […]
(In ITC the heat of successive injections is recorded.)

The test system of experiment [3] is RAD51:dT60 nucleoprotein filament (full-length human RAD51). Briefly: Electrophoretic mobility shift assay (EMSA) of nucleoprotein filament disruption. To be noted: 5 μM full-length human RAD51, 100 nM FAM-dT60, varying peptide concentrations; 50 mM HEPES pH 7.4, 1 mM ATP. The class given is biochemical. On the procedure:
We evaluated the effect of stapled peptides SP2, SP24 and SP30 on the nucleoprotein filament using electrophoretic mobility shift assay (EMSA, Fig. 3D). A fluorescently labelled dT60 oligonucleotide was incubated with full-length RAD51, after which the peptides were added at different concentrations before separating the products on a polyacrylamide gel.
as §1, §2
This was then diluted 10x with the ITC buffer to obtain the final titrant solution (20 mM CHES pH 9.5, 150 mM NaCl, 0.1% Tween-20). HumRadA22 was buffer-exchanged on a NAP-5 desalting column (Cytiva) into ITC buffer and protein concentration was adjusted to 10:9 of the desired final value. One ninth volume of MilliQ water was added to the solution to bring the protein concentration to the desired final value, while maintaining identical buffer:MilliQ volume proportions in both the syringe and the cell. ITC was carried out using a Microcal ITC200 or Malvern PEAQ ITC instruments at 25°C with a 5.00 μCal reference power DP value, stirring speed of 500-750 rpm, 2 sec filter period. Injection spacing, speed and volume, cell/syringe concentrations as well as the number of injections were adjusted for each peptide and its binding properties. ITC data were fitted using a single-site binding model using the Microcal ITC data analysis program in the Origin 7.0 package. Data points affected by baseline spikes were omitted from the analysis.
Circular dichroism spectroscopy
as §3, §4
(In general: In EMSA bound probe runs differently from free probe, usually more slowly.)

Numbered stars: 1 amine (or outer) side, 2 acyl side, 3 side chain; on linkers, the order of the positions; unused ones are H or OH. Bridge positions count the residues as written; N and C are the ends. Peptide text beside a SMILES is read from it. X1 = Nc1nc(CC[*:1])cc(CC[*:2])n1

Broadly, the Kd is a measure of binding affinity in units of concentration. As for `CC(C)C[C@@H]1NC(=O)[C@H](C)NC(=O)[C@H](CCC(N)=O)NC(=O)[C@@H](NC(=O)[C@H](CO)NC(=O)[C@@H](NC(=O)[C@H](CC(N)=O)NC(=O)[C@H](CC(C)C)NC(=O)[C@H](CCCCN)NC(=O)[C@H](CCCCN)NC(=O)CNC(=O)[C@H](CO)NC(=O)[C@H](C)NC(=O)[C@@H](NC(=O)[C@H](CO)NC(=O)[C@H](Cc2ccccc2)NC(=O)CNC(=O)[C@H](CO)NC(=O)CN)[C@@H](C)O)C(C)C)CSCCc2cc(nc(N)n2)CCSC[C@@H](C(=O)N[C@@H](CCCCN)C(=O)N[C@@H](CC(C)C)C(=O)N[C@@H](Cc2ccccc2)C(=O)N[C@@H](CO)C(=O)NCC(=O)O)NC(=O)[C@H](C)NC(=O)[C@H](CCCCN)NC(=O)[C@H](CCC(N)=O)NC1=O` [SP24] (H-GSGFSTASGKKLNVSCQALQKACKLFSG-OH; linker 16-23 via X1), the values for the Kd in experiment [1] and in experiment [2] were 13 nM and 21 nM, respectively. In addition, the “Depolymerisation of RAD51 from single-stranded DNA (EMSA)” value in experiment [3] is listed as “depolymerise RAD51 from single-stranded DNA to similar extent”.
